The text below walks through data of patent US10828308B2, “Treatment of non-alcoholic fatty liver disease or non-alcoholic steatohepatitis with delayed-release 6-mercaptopurine” (Hadasit Medical Research Services and Development Ltd., priority 2015, dated 2020).

The test system of this experiment is STAM model of non-alcoholic steatohepatitis (NASH mice). In words: In vivo efficacy study of DR6-MP in STAM model of non-alcoholic steatohepatitis. Details: species or system C57BL/6 mice. The following applies: 10 mg/kg orally once daily from 6 to 9 weeks of age.

Structures are written as SMILES.

From the text: Pathogen-free 14 day-pregnant C57BL/6 mice were obtained. NASH was established in male mice by a single subcutaneous injection of 200 τg streptozotocin after birth and feeding with a high fat diet ad libitum after 4 weeks of age (day 28±2). Mice were randomized into 5 groups of 8 mice at 6 weeks of age (day 42±2), the day before the start of treatment. Group 1 (Normal): Eight normal mice were fed with normal diet ad libitum without any treatment until 9 weeks of age. Group 2 (Vehicle): Eight NASH mice were orally administered vehicle [0.5% Methyl cellulose] in a volume of 10 mL/kg once daily from 6 to 9 weeks of age. […]
Mice in all groups were sacrificed for the following assays at 9 weeks of age: • Measurement of organ weight • Individual liver weight was measured. • Liver-to-body weight ratio was calculated. • Biochemical assays • Serum ALT and AST levels were measured. • Liver triglyceride contents were quantified. • Histological analyses for liver sections (according to a routine method). • HE staining and estimation of NAFLD Activity score. • Sirius-red staining and estimation of fibrosis area. • Immunochemical staining for F4/80 and estimation of the percentage of inflammation area. • Gene expression assays using total RNA from the liver. • Real-time RT-PCR analyses were performed for TNF-α, INF-γ, IL-10, MCP-1, CCR2, α-SMA, TGF-β, Collagen Type 1, Collagen Type 3, TIMP-1.

As for `CCCc1nc2c(C)cc(-c3nc4ccccc4n3C)cc2n1Cc1ccc(-c2ccccc2C(=O)O)cc1` [Telmisartan], the “fibrosis area (Sirius red-positive area) compared with the Vehicle group” value was “significant decreases in fibrosis area”. In addition, the “Sirius red-positive area (%) (mean ± SD)” value (liver sections at 9 weeks) is on record as 0.74 ± 0.21%.
